Test results published in ChEMBL document CHEMBL1201862, “PubChem BioAssay data set” (2004).
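Method: 48-hour compound exposure of cells in 96-well plates, five concentrations, linear interpolation of endpoints. GI50 is the concentration that inhibits growth by half.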 Activity calls are given as the source filed them. Rule as the data show it: active = GI50 up to about 1.1 µM and inactive = higher.

Legend:
Test in all cases: inhibition of tumour cell growth, NCI panel, 48 h
[1] = system: HOP-62
[2] = system: CCRF-CEM
[3] = system: SK-MEL-2
[4] = system: NCI-H226
[5] = system: CAKI-1
[6] = system: MDA-MB-231
[7] = system: DU-145
[8] = system: SF-295
[9] = system: HCT-116
[10] = system: T47D
[11] = system: COLO 205
[12] = system: KM12
[13] = system: Malme-3M
[14] = system: RPMI-8226
[15] = system: HOP-92
[16] = system: HT-29
[17] = system: RXF 393
[18] = system: MDA-N
[19] = system: SN12C
[20] = system: MDA-MB-435

| SMILES | GI50 [1] | GI50 [2] | GI50 [3] | GI50 [4] | GI50 [5] | GI50 [6] | GI50 [7] | GI50 [8] | GI50 [9] | GI50 [10] | GI50 [11] | GI50 [12] | GI50 [13] | GI50 [14] | GI50 [15] | GI50 [16] | GI50 [17] | GI50 [18] | GI50 [19] | GI50 [20] |
| --- | --- | --- | --- | --- | --- | --- | --- | --- | --- | --- | --- | --- | --- | --- | --- | --- | --- | --- | --- | --- |
| COc1cc(N(CCC#N)CCC#N)ccc1C(=N/NC(=O)c1cc(Br)ccc1O)/N=N/c1ccccc1 | 24 µM (inactive) | 8.45 µM (inactive) | 26.7 µM (inactive) | 33.2 µM (inactive) | 27 µM (inactive) | 21.2 µM (inactive) | 27.9 µM (inactive) | 31.6 µM (inactive) | 21.5 µM (inactive) | 24 µM (inactive) | 16.3 µM (inactive) | 28.2 µM (inactive) | 31.7 µM (inactive) | 17.1 µM (inactive) | 24.3 µM (inactive) | 24.9 µM (inactive) | 26.4 µM (inactive) | 30.1 µM (inactive) | 31.8 µM (inactive) | 36.6 µM (inactive) |
| Cc1cc2ccccc2n1CC(=O)NCC(C)C | > 100 µM (inactive) | > 100 µM (inactive) | > 100 µM (inactive) | > 100 µM (inactive) | > 100 µM (inactive) | > 100 µM (inactive) | > 100 µM (inactive) | > 100 µM (inactive) | > 100 µM (inactive) | > 100 µM (inactive) | > 100 µM (inactive) | > 100 µM (inactive) | > 100 µM (inactive) | > 100 µM (inactive) | > 100 µM (inactive) | > 100 µM (inactive) | > 100 µM (inactive) | > 100 µM (inactive) | > 100 µM (inactive) | > 100 µM (inactive) |
| CCN1C(=O)/C(=C\Nc2ccccc2)S/C1=N/Nc1ncc(CC(=O)Nc2ccccc2C)s1 | > 100 µM (inactive) | 82.6 µM (inactive) | > 100 µM (inactive) | 11.2 µM (inactive) | > 100 µM (inactive) | > 100 µM (inactive) | > 100 µM (inactive) | 64.7 µM (inactive) | > 100 µM (inactive) | 45.3 µM (inactive) | > 100 µM (inactive) | 74 µM (inactive) | > 100 µM (inactive) | 36.5 µM (inactive) | 67.6 µM (inactive) | 33.7 µM (inactive) | > 100 µM (inactive) | > 100 µM (inactive) | > 100 µM (inactive) | > 100 µM (inactive) |
| OC[C@H]1O[C@@H](n2cnc3c(S)ncnc32)[C@H](O)[C@@H]1O [THIOINOSINE] | 2120 µM (inactive) | 1120 µM (inactive) | 1490 µM (inactive) | > 2500 µM (inactive) | > 2500 µM (inactive) | > 2500 µM (inactive) | 1390 µM (inactive) | > 2500 µM (inactive) | 2390 µM (inactive) | 1830 µM (inactive) | > 2230 µM (inactive) | > 2500 µM (inactive) | 1860 µM (inactive) | 1400 µM (inactive) | 1050 µM (inactive) | 2260 µM (inactive) | 2460 µM (inactive) | > 2310 µM (inactive) | > 2500 µM (inactive) | 2330 µM (inactive) |
| COc1cc2cc(C(=O)N3CC(CCl)c4c3cc(N)c3ccccc43)[nH]c2c(OC)c1OC (stereo not given) | < 0.01 µM (active) | < 0.01 µM (active) | < 0.01 µM (active) | < 0.01 µM (active) | < 0.01 µM (active) | < 0.01 µM (active) | < 0.01 µM (active) | < 0.01 µM (active) | < 0.01 µM (active) | < 0.01 µM (active) | < 0.01 µM (active) | < 0.01 µM (active) | < 0.01 µM (active) | < 0.01 µM (active) | < 0.01 µM (active) | < 0.01 µM (active) | < 0.01 µM (active) | < 0.01 µM (active) | < 0.01 µM (active) | < 0.01 µM (active) |
| COCOC1/C=C/CCCCC2=C(C)C=C(C1)O2 (stereo not given) | > 100 µM (inactive) | > 100 µM (inactive) | > 100 µM (inactive) | > 100 µM (inactive) | > 100 µM (inactive) | > 100 µM (inactive) | > 100 µM (inactive) | > 100 µM (inactive) | > 100 µM (inactive) | > 100 µM (inactive) | > 100 µM (inactive) | > 100 µM (inactive) | > 100 µM (inactive) | > 100 µM (inactive) | > 100 µM (inactive) | > 100 µM (inactive) | > 100 µM (inactive) | > 100 µM (inactive) | > 100 µM (inactive) | > 100 µM (inactive) |
| CCOC(CN=C=S)OCC | > 10 µM (inactive) | 4.45 µM (inactive) | > 10 µM (inactive) | > 10 µM (inactive) | > 10 µM (inactive) | > 10 µM (inactive) | > 10 µM (inactive) | > 10 µM (inactive) | 7.4 µM (inactive) | > 10 µM (inactive) | > 10 µM (inactive) | > 10 µM (inactive) | > 10 µM (inactive) | 3.77 µM (inactive) | 7.67 µM (inactive) | > 10 µM (inactive) | > 10 µM (inactive) | > 10 µM (inactive) | > 10 µM (inactive) | > 10 µM (inactive) |
| Fc1cccc(C2SCc3nc4cc5ccccc5cc4n32)c1 (stereo not given) | 41.5 µM (inactive) | > 100 µM (inactive) | > 100 µM (inactive) | > 100 µM (inactive) | 68.9 µM (inactive) | > 100 µM (inactive) | > 100 µM (inactive) | > 100 µM (inactive) | > 100 µM (inactive) | > 100 µM (inactive) | > 100 µM (inactive) | > 100 µM (inactive) | > 100 µM (inactive) | > 100 µM (inactive) | 21 µM (inactive) | > 100 µM (inactive) | > 100 µM (inactive) | > 100 µM (inactive) | 53.3 µM (inactive) | > 100 µM (inactive) |
| O=C1N[C@@H]2c3c(Br)sc(Br)c3C(=O)[C@@H]2N1 | 6.65 µM (inactive) | 0.678 µM (active) | 4.82 µM (inactive) | 29.6 µM (inactive) | 3.8 µM (inactive) | 4.83 µM (inactive) | 5.86 µM (inactive) | 15.5 µM (inactive) | 1.89 µM (inactive) | 5.64 µM (inactive) | 3.78 µM (inactive) | 5.28 µM (inactive) | 4.52 µM (inactive) | 3.05 µM (inactive) | 5.56 µM (inactive) | 2.82 µM (inactive) | 4.94 µM (inactive) | 2.08 µM (inactive) | 4.22 µM (inactive) | 2.1 µM (inactive) |
| COc1cc2c(cc1OC)-c1cc3cc(OC)c(OC)cc3c(C)[n+]1CC2.O=C([O-])CS(=O)(=O)O | > 100 µM (inactive) | 6.49 µM (inactive) | > 100 µM (inactive) | > 100 µM (inactive) | > 100 µM (inactive) | > 100 µM (inactive) | > 100 µM (inactive) | > 100 µM (inactive) | 73.5 µM (inactive) | 2.82 µM (inactive) | 31.6 µM (inactive) | 26.3 µM (inactive) | 29.3 µM (inactive) | > 100 µM (inactive) | 95.9 µM (inactive) | > 100 µM (inactive) | > 100 µM (inactive) | 89.3 µM (inactive) | 37.6 µM (inactive) | 76.4 µM (inactive) |
| Oc1cc(Cc2ccccc2)c(Cc2ccccc2)cc1O | > 10 µM (inactive) | > 10 µM (inactive) | > 10 µM (inactive) | > 10 µM (inactive) | > 10 µM (inactive) | > 10 µM (inactive) | > 10 µM (inactive) | > 10 µM (inactive) | > 10 µM (inactive) | > 10 µM (inactive) | > 10 µM (inactive) | > 10 µM (inactive) | > 10 µM (inactive) | > 10 µM (inactive) | > 10 µM (inactive) | > 10 µM (inactive) | > 10 µM (inactive) | 1.67 µM (inactive) | > 10 µM (inactive) | > 10 µM (inactive) |
| O=C(C1OC1c1ccc(O)cc1)C12CC3CC(CC(C3)C1)C2 (stereo not given) | > 100 µM (inactive) | 5.92 µM (inactive) | > 100 µM (inactive) | > 100 µM (inactive) | 40.8 µM (inactive) | > 100 µM (inactive) | > 100 µM (inactive) | > 88.9 µM (inactive) | 41.5 µM (inactive) | 22.9 µM (inactive) | 29.5 µM (inactive) | 98.9 µM (inactive) | 45.1 µM (inactive) | 27 µM (inactive) | 32.3 µM (inactive) | > 100 µM (inactive) | > 78.3 µM (inactive) | > 57.1 µM (inactive) | 47.1 µM (inactive) | > 40.7 µM (inactive) |
| CC1(c2cccs2)CC(c2cccs2)=C(C#N)C(=C(C#N)C#N)N1 (stereo not given) | 19.9 µM (inactive) | 0.519 µM (active) | 17.8 µM (inactive) | 22.3 µM (inactive) | 19.7 µM (inactive) | 23.5 µM (inactive) | 15.6 µM (inactive) | 16.9 µM (inactive) | 17.3 µM (inactive) | 16.6 µM (inactive) | 16.9 µM (inactive) | 17.1 µM (inactive) | 19.2 µM (inactive) | 17.5 µM (inactive) | 14.8 µM (inactive) | 17.9 µM (inactive) | 18.3 µM (inactive) | 16.7 µM (inactive) | 18.7 µM (inactive) | 17.4 µM (inactive) |
| CCCCn1cc(C(=O)O)c(=O)c2c3sccc3ccc21 | > 100 µM (inactive) | > 100 µM (inactive) | > 100 µM (inactive) | > 100 µM (inactive) | > 100 µM (inactive) | > 100 µM (inactive) | > 100 µM (inactive) | 74.8 µM (inactive) | > 100 µM (inactive) | > 100 µM (inactive) | > 100 µM (inactive) | > 100 µM (inactive) | > 100 µM (inactive) | > 100 µM (inactive) | > 100 µM (inactive) | > 100 µM (inactive) | > 100 µM (inactive) | > 100 µM (inactive) | > 100 µM (inactive) | > 100 µM (inactive) |
